Experimental data from patent US20240025856A1, “1,2,3,4-TETRAHYDROQUINOLINE DERIVATIVES AS INHIBITORS OF THE YAP/TAZ-TEAD ACTIVATION FOR TREATING CANCER” (KATHOLIEKE UNIVERSITEIT LEUVEN, priority 2020, published 2024).

Columns and labels:
NCI-1H226 = test: Mesothelioma cell line proliferation assay, H226 (ATPlite); type: cell-based; details: Homo sapiens, NCI-H226, 144 h, 6 days with compound
Description: Mesothelioma cell lines, NCI-1H226 and NCI-1H2052 (all sourced from the ATCC cell culture collection) are plated in 96-well plates (Corning® 96 Well White Polystyrene Microplate clear flat bottom, white polystyrene (TC-Treated)), at 1500 cells/well in full medium (RPMI 1640 ATCC modification with L-glutamine, HEPES, Phenol Red, Sodium Pyruvate, High glucose, Low sodium bicarbonate and 10% fetal bovine serum). Cells are incubated overnight at 37° C. in an incubator with 5% C02. Then compounds, dissolved in DMSO, are added in dose-response. Cells are incubated with compound dilutions for another 6 days at 37° C. in an incubator with 5% C02. Cell viability is quantitated using the ATPlite kit (Perkin-Elmer) and the luminescence is read-out using an Envision instrument (Perkin-Elmer). The amount of relative light units produced using the ATPlite kit is used to calculated percent of inhibition.
The activities of some example compounds are depicted in the table below. The activity ranges A, B and C refer to EC50 values in the mesothelioma cell line proliferation assay as described as follows: “A”: EC50<1 μM; “B”: 1 μM s EC50≤10 μM and “C”: EC50≥10 μM; NT: not tested.

[1] = system: YAP/TAZ-TEAD transcription; test: Reporter gene assay for measuring the inhibition of YAP/TAZ-TEAD transcription (TEAD-responsive element luciferase reporter in Hek293T cells); type: cell-based; details: Hek293T cells transiently transfected with TEAD-responsive element luciferase reporter, 24 hours incubation
In short: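 Readout is SteadyLite luciferase luminescence from a TEAD-responsive element reporter transiently transfected into Hek293T cells, exposed to compounds for 24 h at 37 °C/5% CO2. IC50 derived from percent inhibition, scaled between vehicle basal activity (0%) and positive control inhibitor (100%).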

SMILES	EC50 (NCI-1H226) [nM]	IC50 ([1]; Homo sapiens, HEK-293T, 24 h) [nM]	IC50 [1] [nM]
C=CC(=O)NCC1Cc2c(C)cccc2N(c2ccc(C(F)(F)F)cc2)C1 (stereo not shown) [compound 128, N-((5-methyl-1-(4-(trifluoromethyl)phenyl)-1,2,3,4-tetrahydroquinolin-3-yl)methyl)acrylamide]	< 1000	< 1000	
C=CC(=O)N(C)CC1Cc2ccccc2N(c2ccc(C(F)(F)F)cc2)C1 (stereo not shown) [compound 134, N-methyl-N-((1-(4-(trifluoromethyl)phenyl)-1,2,3,4-tetrahydroquinolin-3-yl)methyl)acrylamide]	< 1000	< 1000	
C=CC(=O)NCC1Cc2ccccc2N(Cc2ccc(C(F)(F)F)cc2)C1 (stereo not shown) [compound 184, N-((1-(4-(trifluoromethyl)benzyl)-1,2,3,4-tetrahydroquinolin-3-yl)methyl)acrylamide]	< 1000	< 1000	
C=CC(=O)NC1Cc2ccccc2N(c2ccc(OC(F)(F)F)cc2)C1 (stereo not shown) [compound 021, N-(1-(4-(trifluoromethoxy)phenyl)-1,2,3,4-tetrahydroquinolin-3-yl)acrylamide]	< 1000	< 1000	
C=CC(=O)NC1Cc2ccccc2N(c2ccc(SC(F)(F)F)cc2)C1 (stereo not shown) [compound 030, N-(1-(4-((trifluoromethyl)thio)phenyl)-1,2,3,4-tetrahydroquinolin-3-yl)acrylamide]	< 1000	< 1000	
C=CC(=O)NC1Cc2c(C)cccc2N(c2ccc(C(F)(F)F)cc2)C1 (stereo not shown) [compound 064, N-(5-methyl-1-(4-(trifluoromethyl)phenyl)-1,2,3,4-tetrahydroquinolin-3-yl)acrylamide]	< 1000	< 1000	
C=CC(=O)NCC1Cc2ccccc2N(c2ccc(C(F)(F)F)cc2F)C1 (stereo not shown) [compound 113, N-((1-(2-fluoro-4-(trifluoromethyl)phenyl)-1,2,3,4-tetrahydroquinolin-3-yl)methyl)acrylamide]	< 1000	< 1000	
C=CC(=O)NC1Cc2ccccc2N(c2ccc(S(F)(F)(F)(F)F)cc2)C1 (stereo not shown) [compound 023, N-(1-(4-(pentafluoro-λ^6-sulfaneyl)phenyl)-1,2,3,4-tetrahydroquinolin-3-yl)acrylamide]	< 1000	< 1000	
C=CC(=O)NC1Cc2ccccc2N(c2cccc(C(C)C)c2)C1 (stereo not shown) [compound 005, N-(1-(3-isopropylphenyl)-1,2,3,4-tetrahydroquinolin-3-yl)acrylamide]		< 1000	
C=CC(=O)NCC1Cc2c(Cc3ccccc3)cccc2N(c2ccc(C(F)(F)F)cc2)C1 (stereo not shown) [compound 129, N-((5-benzyl-1-(4-(trifluoromethyl)phenyl)-1,2,3,4-tetrahydroquinolin-3-yl)methyl)acrylamide]		< 1000	
C=CC(=O)NC1Cc2ccccc2N(c2ccc(C(F)(F)F)cn2)C1 (stereo not shown) [compound 011, N-(1-(5-(trifluoromethyl)pyridin-2-yl)-1,2,3,4-tetrahydroquinolin-3-yl)acrylamide]		< 1000	
C=CC(=O)NC1Cc2c(-c3noc(=O)[nH]3)cccc2N(c2ccc(C(F)(F)F)cc2)C1 (stereo not shown) [compound 166, N-(5-(5-oxo-4,5-dihydro-1,2,4-oxadiazol-3-yl)-1-(4-(trifluoromethyl)phenyl)-1,2,3,4-tetrahydroquinolin-3-yl)acrylamide]		> 20000	
CCC(=O)NC1Cc2c(Nc3ccccc3)cccc2N(c2ccc(C(F)(F)F)cc2)C1 (stereo not shown) [compound 071, N-(5-(phenylamino)-1-(4-(trifluoromethyl)phenyl)-1,2,3,4-tetrahydroquinolin-3-yl)propionamide]		1000 to 20000	
C=CC(=O)NCC1Cc2ccccc2N(c2ccc(C(F)(F)F)c(F)c2)C1 (stereo not shown) [compound 112, N-((1-(3-fluoro-4-(trifluoromethyl)phenyl)-1,2,3,4-tetrahydroquinolin-3-yl)methyl)acrylamide]		< 1000	
C=CC(=O)NC1Cc2ccccc2N(c2ccc(Cl)cc2)C1 (stereo not shown) [compound 033, N-(1-(4-chlorophenyl)-1,2,3,4-tetrahydroquinolin-3-yl)acrylamide]		< 1000	
C=CC(=O)NC1Cc2c(Nc3cccnc3)cccc2N(c2ccc(C(F)(F)F)cc2)C1 (stereo not shown) [compound 070, N-(5-(pyridin-3-ylamino)-1-(4-(trifluoromethyl)phenyl)-1,2,3,4-tetrahydroquinolin-3-yl)acrylamide]		< 1000	
C=CC(=O)NCC1Cc2ccccc2N(Cc2cccc(C(F)(F)F)c2)C1 (stereo not shown) [compound 185, N-((1-(3-(trifluoromethyl)benzyl)-1,2,3,4-tetrahydroquinolin-3-yl)methyl)acrylamide]		< 1000	
C=CC(=O)NC1Cc2c(CC(=O)O)cccc2N(c2ccc(C(F)(F)F)cc2)C1 (stereo not shown) [compound 162, 2-(3-acrylamido-1-(4-(trifluoromethyl)phenyl)-1,2,3,4-tetrahydroquinolin-5-yl)acetic acid]		> 20000	

SMILES	EC50 (NCI-1H226) [nM]	IC50 ([1]; Homo sapiens, HEK-293T, 24 h) [nM]	IC50 [1] [nM]
C=CC(=O)NC1Cc2c(Cc3ccccc3)cccc2N(c2ccc(C(F)(F)F)cc2)C1 (stereo not shown) [compound 066, N-(5-benzyl-1-(4-(trifluoromethyl)phenyl)-1,2,3,4-tetrahydroquinolin-3-yl)acrylamide]		< 1000	
N#CCCNCC1Cc2ccccc2N(c2ccc(C(F)(F)F)cc2)C1 (stereo not shown) [compound 126, 3-(((1-(4-(trifluoromethyl)phenyl)-1,2,3,4-tetrahydroquinolin-3-yl)methyl)amino)propanenitrile]		1000 to 20000	
C=CC(=O)NC1Cc2ccccc2N(c2cc(F)ccc2F)C1 (stereo not shown) [compound 026, N-(1-(2,5-difluorophenyl)-1,2,3,4-tetrahydroquinolin-3-yl)acrylamide]		< 1000	
CS(=O)(=O)NC1Cc2ccccc2N(c2ccc(C(F)(F)F)cc2)C1 (stereo not shown) [compound 047, N-(1-(4-(trifluoromethyl)phenyl)-1,2,3,4-tetrahydroquinolin-3-yl)methanesulfonamide]		< 1000	
C=CC(=O)NC1Cc2ccccc2N(c2ccc(C(F)F)cc2)C1 (stereo not shown) [compound 020, N-(1-(4-(difluoromethyl)phenyl)-1,2,3,4-tetrahydroquinolin-3-yl)acrylamide]		< 1000	
C=CC(=O)NCC1Cc2c(C(=O)NS(C)(=O)=O)cccc2N(c2ccc(C(F)(F)F)cc2)C1 (single isomer, unassigned) [157-En1, (R)- or (S)-3-(acrylamidomethyl)-N-(methylsulfonyl)-1-(4-(trifluoromethyl)phenyl)-1,2,3,4-tetrahydroquinoline-5-carboxamide]			> 20000
N#CCC(=O)NC1Cc2ccccc2N(c2ccc(C(F)(F)F)cc2)C1 (stereo not shown) [compound 052, 2-cyano-N-(1-(4-(trifluoromethyl)phenyl)-1,2,3,4-tetrahydroquinolin-3-yl)acetamide]		1000 to 20000	
C=CC(=O)NCC1Cc2ccccc2N(c2cccc(C(F)(F)F)c2)C1 (stereo not shown) [compound 086, N-((1-(3-(trifluoromethyl)phenyl)-1,2,3,4-tetrahydroquinolin-3-yl)methyl)acrylamide]		< 1000	
C=CC(=O)NCC1Cc2c(CC(=O)O)cccc2N(c2ccc(C(F)(F)F)cc2)C1 (stereo not shown) [Cpd. No. 161-En2, 2-(3-(acrylamidomethyl)-1-(4-(trifluoromethyl)phenyl)-1,2,3,4-tetrahydroquinolin-5-yl)acetic acid]			1000 to 20000
C=CC(=O)NC1Cc2ccccc2N(c2ccc(C)cc2C)C1 (stereo not shown) [compound 034, N-(1-(2,4-dimethylphenyl)-1,2,3,4-tetrahydroquinolin-3-yl)acrylamide]		< 1000	
CS(=O)(=O)NCC1Cc2ccccc2N(c2ccc(C(F)(F)F)cc2)C1 (stereo not shown) [compound 121, N-((1-(4-(trifluoromethyl)phenyl)-1,2,3,4-tetrahydroquinolin-3-yl)methyl)methanesulfonamide]		< 1000	
O=C(O)CNC1Cc2ccccc2N(c2ccc(C(F)(F)F)cc2)C1 (stereo not shown) [compound 044, (1-(4-(trifluoromethyl)phenyl)-1,2,3,4-tetrahydroquinolin-3-yl)glycine]		> 20000	
CCC(=O)NC1Cc2ccccc2N(c2ccc(C(F)(F)F)cc2)C1 (stereo not shown) [compound 037, N-(1-(4-(trifluoromethyl)phenyl)-1,2,3,4-tetrahydroquinolin-3-yl)propionamide]		1000 to 20000	
C=CC(=O)N(CCOC)C1Cc2ccccc2N(c2ccc(C(F)(F)F)cc2)C1 (stereo not shown) [compound 133, N-(2-methoxyethyl)-N-(1-(4-(trifluoromethyl)phenyl)-1,2,3,4-tetrahydroquinolin-3-yl)acrylamide]		1000 to 20000	
C=CC(=O)NCC1Cc2c(C(=O)NS(C)(=O)=O)cccc2N(c2ccc(C(F)(F)F)cc2)C1 (stereo not shown) [compound 157, 3-(acrylamidomethyl)-N-(methylsulfonyl)-1-(4-(trifluoromethyl)phenyl)-1,2,3,4-tetrahydroquinoline-5-carboxamide]		> 20000	
C=CC(=O)NC1Cc2ccccc2N(c2cnc(C(F)(F)F)nc2)C1 (stereo not shown) [compound 031, N-(1-(2-(trifluoromethyl)pyrimidin-5-yl)-1,2,3,4-tetrahydroquinolin-3-yl)acrylamide]		< 1000	
CCC(=O)NCC1Cc2ccccc2N(c2ccc(C#N)cc2)C1 (stereo not shown) [compound 148, N-((1-(4-cyanophenyl)-1,2,3,4-tetrahydroquinolin-3-yl)methyl)propionamide]		1000 to 20000	
